The nature of test [1]: Increased percentage of formazan production in drug treated virus infected cells to equal 50% control drug free uninfected cells on serotype 14.
Test [2] is described as follows: The EC50 was calculated as the concentration of drug that increased the percentage of formazan production in drug treated, virus infected cells to 50% of that produced by drug free uninfected cells on serotype 2.

pEC50: −log10 of the molar value.

Take `CCOC(=O)/C=C/[C@H](CN1CCNC1=O)NC(=O)[C@H](Cc1ccccc1)NC(=O)[C@H](CC(C)C)NC(=O)OCc1ccccc1` [(E)-(R)-4-[(S)-2-((S)-2-Benzyloxycarbonylamino-4-methyl-pentanoylamino)-3-phenyl-propionylamino]-5-(2-oxo-imidazolidin-1-yl)-pent-2-enoic acid ethyl ester]: the negative logarithm of the EC50 (pEC50) (usually the EC50 on a negative log10 scale, so that one unit is a factor of ten) in test [1] was 6.22.
Consider `CCOC(=O)/C=C/[C@H](C[C@@H]1CCCNC1=O)NC(=O)[C@H](Cc1ccc(F)cc1)NC(=O)[C@@H](NC(=O)c1cc(C)on1)C(C)C` [(E)-(S)-4-((S)-3-(4-Fluoro-phenyl)-2-{(S)-3-methyl-2-[(5-methyl-isoxazole-3-carbonyl)-amino]-butyrylamino}-propionylamino)-5-((S)-2-oxo-piperidin-3-yl)-pent-2-enoic acid ethyl ester], for which, in test [1], the pEC50 was 7.70.
On to `CCOC(=O)/C=C/[C@H](C[C@@H]1CCCNC1=O)NC(=O)[C@H](Cc1ccccc1)NC(=O)[C@H](CC(C)C)NC(=O)OCc1ccccc1` [(E)-(S)-4-[(S)-2-((S)-2-Benzyloxycarbonylamino-4-methyl-pentanoylamino)-3-phenyl-propionylamino]-5-((S)-2-oxo-piperidin-3-yl)-pent-2-enoic acid ethyl ester], for which, in test [1], the pEC50 was 7.52.
For the molecule `CCOC(=O)/C=C/[C@H](CCC(N)=O)NC(=O)[C@H](Cc1ccccc1)NC(=O)[C@H](CC(C)C)NC(=O)OCc1ccccc1` [(E)-(S)-4-[(S)-2-((S)-2-Benzyloxycarbonylamino-4-methyl-pentanoylamino)-3-phenyl-propionylamino]-6-carbamoyl-hex-2-enoic acid ethyl ester], the negative logarithm of the EC50 (pEC50) in test [2] was 5.80.
Regarding `CCOC(=O)/C=C/[C@H](CCC(=O)N(C)C)NC(=O)[C@H](Cc1ccccc1)NC(=O)[C@H](CC(C)C)NC(=O)OCc1ccccc1` [(E)-(S)-4-[(S)-2-((S)-2-Benzyloxycarbonylamino-4-methyl-pentanoylamino)-3-phenyl-propionylamino]-6-dimethylcarbamoyl-hex-2-enoic acid ethyl ester], the negative logarithm of the EC50 (pEC50) in test [1] is 5.40.
With `CCOC(=O)/C=C/[C@H](CCC(=O)NC)NC(=O)[C@H](Cc1ccccc1)NC(=O)[C@H](CC(C)C)NC(=O)OCc1ccccc1` [(E)-(S)-4-[(S)-2-((S)-2-Benzyloxycarbonylamino-4-methyl-pentanoylamino)-3-phenyl-propionylamino]-6-methylcarbamoyl-hex-2-enoic acid ethyl ester], the negative logarithm of the EC50 (pEC50) in test [1] is 5.25.
Same read-out and setting: the figure for `CCOC(=O)/C=C/[C@H](C[C@@H]1CCNC1=O)NC(=O)[C@H](Cc1ccc(F)cc1)NC(=O)[C@@H](NC(=O)c1cc(C)on1)C(C)(C)C` [(E)-(S)-4-[(S)-2-{(S)-3,3-Dimethyl-2-[(5-methyl-isoxazole-3-carbonyl)-amino]-butyrylamino}-3-(4-fluoro-phenyl)-propionylamino]-5-((S)-2-oxo-pyrrolidin-3-yl)-pent-2-enoic acid ethyl ester] is 8.00.
Still for that read-out and setting: the figure for `CCOC(=O)/C=C/[C@H](C[C@@H]1CCCNC1=O)NC(=O)[C@@H](CC(=O)[C@@H](NC(=O)c1cc(C)on1)C(C)C)Cc1ccc(F)cc1` [(E)-(S)-4-{(2R,5S)-2-(4-Fluoro-benzyl)-6-methyl-5-[(5-methyl-isoxazole-3-carbonyl)-amino]-4-oxo-heptanoylamino}-5-((S)-2-oxo-piperidin-3-yl)-pent-2-enoic acid ethyl ester] is 9.00.
In turn, `CCOC(=O)/C=C/[C@H](C[C@@H]1CCNC1=O)NC(=O)[C@H](Cc1ccc(F)cc1)NC(=O)[C@@H](NC(=O)c1cc(C)on1)C(C)C` [AG7088 analogue 2a] gave a pEC50 in test [1] of 8.00.
The same measure, in the same setting: for `CCOC(=O)/C=C/[C@H](C[C@@H]1CCNC1=O)NC(=O)[C@H](Cc1ccccc1)NC(=O)[C@@H](NC(=O)OCc1ccccc1)C(C)C` [ethyl (2E,4S)-4-[(2S)-2-[(2S)-2-{[(benzyloxy)carbonyl]amino}-3-methylbutanamido]-3-phenylpropanamido]-5-[(3S)-2-oxopyrrolidin-3-yl]pent-2-enoate] the value was 7.52.
